Where two headings read alike, the source gives them in different places.
Assays:
HCMV ADCREGFP [1] = conditions: HFFs; for EC50: read-out: EC50 (μM) ± s.d., GFP reporter HCMV, GFP expression 6 days after compound, mean of 2–3 dose–response determinations
in vitro [2] = conditions: human, Compound only, percent viable cells ± standard deviation
IAV A/WS/33 (H1N1) [3] = tested on: IAV A/WS/33 (H1N1)
HFFs = test: Cell viability assay; format: cell-based, human; conditions: read-out: CC50 (μM) ± s.d., 6 days, MTS assay, mean of 2–3 dose–response determinations
in vitro [4] = conditions: dog
HCoV-OC43 = conditions: at 1 μM, Huh7, 5 days
Huh-7 cells = conditions: at 0.1 μM, Huh-7, 5 days
IAV A/WS/33 (H1N1) [5] = conditions: cited from earlier work
HCMV ADCREGFP [6] = conditions: cited from earlier work
[7] = tested on: HCMV immediate-early protein 1 (IE1); conditions: infected and treated cells; cited from earlier work
[8] = tested on: HCMV immediate-early protein 2 (IE2); conditions: infected and treated cells; cited from earlier work
MDCK cells = conditions: 24 h, T-1105 at 12.5 μM
IAV A/WS/33 (H1N1) [9] = test: microbe, parasite or virus in culture; conditions: Influenza A virus, H1N1, MDCK, 24 h
[10] = MDCK CPE assay, p97 inhibitors 0.1, 0.25, 0.5 μM, T-1105 at 12.5 μM

Q: With `Cc1cc2c(C(N)=O)cccc2n1-c1nc2c(c(NCc3ccccc3)n1)COCC2` [CB-5083] as the molecule, how does the EC50 (HCMV ADCREGFP [1]) read?
A: 0.72 ± 1.1 µM

Q: And the viability at 0.25 µM (in vitro [2])?
A: 59 ± 3%

Q: What about the viability at 0.5 µM (in vitro [2]) of the same molecule?
A: 38 ± 1%

Q: What about the “anti-IAV activity (in words)” value (IAV A/WS/33 (H1N1) [3]) of the same molecule?
A: no detectable anti-IAV activity

Q: And the CC50 (HFFs)?
A: 0.53 ± 0.1 µM

Q: What about the viability at 0.1 µM (in vitro [4]) of the same molecule?
A: 97 ± 3%

Q: Which “protection against HCoV-OC43 CPE” value (HCoV-OC43) does the source give for `CCC(CC)COC(=O)[C@H](C)N[P@](=O)(OC[C@H]1O[C@@](C#N)(c2ccc3c(N)ncnn23)[C@H](O)[C@@H]1O)Oc1ccccc1` [RDV, remdesivir] here?
A: 100%

Q: For `Cc1cc(OCc2nnc(SC3CCCC3)n2-c2cccnc2)ccc1-c1ccc(S(C)(=O)=O)cc1` [NMS-873], which “effect on cell viability (in words)” value (Huh-7 cells) is on record?
A: clear effect on cell viability

Q: What about the “IAV virus production (in words)” value (IAV A/WS/33 (H1N1) [5]) of the same molecule?
A: inhibits virus production

Q: And the “TI, tissue culture therapeutic index (CC50/EC50)” value (HCMV ADCREGFP [1]; HCMV)?
A: 1.9

Q: What about the EC50 (HCMV ADCREGFP [1]) of the same molecule?
A: 2.2 ± 2.5 µM

Q: What about the “HCMV replication (in words)” value (HCMV ADCREGFP [6]) of the same molecule?
A: reduced virus replication

Q: And the IE1 expression [7]?
A: not affected

Q: What about the IE2 expression [8] of the same molecule?
A: reduced

Q: And the “cell viability in IAV assay (in words)” value (MDCK cells)?
A: retention of cell viability

Q: And the inhibition at 0.1 µM (IAV A/WS/33 (H1N1) [9]; read-out: Compound + Virus, percent viable cells ± standard deviation, 0.1 μM, MDCK, 24 h)?
A: 21 ± 7%

Q: What about the inhibition at 0.25 µM (IAV A/WS/33 (H1N1) [9]; read-out: Compound + Virus, percent viable cells ± standard deviation, 0.25 μM, MDCK, 24 h) of the same molecule?
A: 62 ± 6%

Q: And the “anti-IAV activity (in words)” value (IAV A/WS/33 (H1N1) [3]; [10])?
A: Clear antiviral effects

Q: What about the CC50 (HFFs) of the same molecule?
A: 4.1 ± 3.3 µM

Q: And the viability at 0.1 µM (in vitro [4])?
A: 89 ± 3%

Q: And the viability at 0.25 µM (in vitro [4])?
A: 80 ± 2%

Q: And the viability at 0.5 µM (in vitro [4])?
A: 94 ± 2%

Q: With `NC(=O)c1nccnc1O` [Compound T-1105, 3-hydroxypyrazine-2-carboxamide] as the molecule, how does the “cell viability in IAV assay (in words)” value (MDCK cells) read?
A: retention of cell viability

Q: And the “anti-IAV activity (in words)” value (IAV A/WS/33 (H1N1) [3]; [10])?
A: Clear antiviral effects

Source: PMC7794631 (Medicinal Chemistry Research, 2021)
